# Measured values: patent publication US12018021B2 (UCB Biopharma SRL, priority 2018, dated 2024)
# pIC50: −log10 of the molar value.
# Biological target: IgE-Tb / FcεRIα-Y131A-AF488 (Homo sapiens, UniProt P01854)
# Assay: IgE-Tb / FcεRIα-Y131A-AF488 FRET assay (protocol for examples 1 to 233)
# Assay type: binding
# Conditions: examples 1 to 233: 5 nM IgE-Tb, 25 nM FcεRIα-Y131A-AF488, incubated 2 hours at room temperature; read-out: Y131A FRET IC50 range
# How it was run: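 TR-FRET displacement with 5 nM IgE-Tb and 25 nM FcεRIα-Y131A-AF488 (final), 10-point 3-fold compound dilutions from typically 10 μM top, 2% DMSO, 2 h at room temperature. Excitation 330 nm, 520/495 nm emission ratio; MIN set with 200 nM unlabelled FcεRIα. IC50 from four-parameter logistic fit of percent inhibition.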
# Sequence of IgE-Tb / FcεRIα-Y131A-AF488 (P01854 1-427 limits assumed, stated change not applied): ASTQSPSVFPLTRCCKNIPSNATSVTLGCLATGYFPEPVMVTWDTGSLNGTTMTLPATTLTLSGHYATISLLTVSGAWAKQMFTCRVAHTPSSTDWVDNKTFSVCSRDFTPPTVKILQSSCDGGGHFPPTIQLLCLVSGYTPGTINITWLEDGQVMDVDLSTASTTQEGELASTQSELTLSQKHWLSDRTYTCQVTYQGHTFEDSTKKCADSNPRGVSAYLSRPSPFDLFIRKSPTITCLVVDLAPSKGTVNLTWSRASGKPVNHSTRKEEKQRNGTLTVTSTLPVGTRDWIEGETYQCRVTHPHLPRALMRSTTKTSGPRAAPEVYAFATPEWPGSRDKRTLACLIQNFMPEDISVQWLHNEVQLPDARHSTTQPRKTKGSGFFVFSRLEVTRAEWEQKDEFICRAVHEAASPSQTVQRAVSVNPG
row,Compound,pIC50
1,"CC(=O)Nc1cncn1[C@H]1CCc2sc(NC(=O)C3CC3)c(C(=O)NCC3CC3)c2C1 [Example 113, (5S)-5-(5-Acetamidoimidazol-1-yl)-2-(cyclopropanecarbonylamino)-N-(cyclopropylmethyl)-4,5,6,7-tetrahydrobenzothiophene-3-carboxamide]",> 6.00
2,"Cc1cc(Nc2nncn2[C@H]2CCc3sc(NC(=O)C4CC4)c(C(=O)NCC4CC4)c3C2)[nH]n1 [Example 217, (5S)-2-(cyclopropanecarbonylamino)-N-(cyclopropylmethyl)-5-[3-[(3-methyl-1H-pyrazol-5-yl)amino]-1,2,4-triazol-4-yl]-4,5,6,7-tetrahydrobenzothiophene-3-carboxamide]",> 6.00
3,"NCC1(O)CCc2sc(NC(=O)C3CC3)c(C(=O)NCC3CC3)c2C1 (stereo not drawn) [Example 69, 5-(Aminomethyl)-2-(cyclopropanecarbonylamino)-N-(cyclopropylmethyl)-5-hydroxy-6,7-dihydro-4H-benzothiophene-3-carboxamide]",4.30 to 5.00
4,"O=C(Nc1sc2c(c1C(=O)N1CC(F)C1)CCCC2)C1CC1 [Example 76, N-[3-(3-Fluoroazetidine-1-carbonyl)-4,5,6,7-tetrahydrobenzothiophen-2-yl]cyclopropanecarboxamide]",5.00 to 6.00
5,"Cc1ccc(NC(=O)NCC2(O)CCc3sc(NC(=O)C4CC4)c(C(=O)NCC4CC4)c3C2)cc1 (stereo not drawn) [Example 70, 2-(Cyclopropanecarbonylamino)-N-(cyclopropylmethyl)-5-hydroxy-5-[(p-tolylcarbamoylamino)methyl]-6,7-dihydro-4H-benzothiophene-3-carboxamide]",5.00 to 6.00
6,"O=C(NCC1CC1)c1c(NC(=O)C2CC2)sc2c1CC(C(=O)Nc1cnccn1)CC2 (stereo not drawn) [Example 53, 2-(Cyclopropanecarbonylamino)-N3-(cyclopropylmethyl)-N5-pyrazin-2-yl-4,5,6,7-tetrahydrobenzothiophene-3,5-dicarboxamide]",> 6.00
7,"CCNC(=NC#N)NC1CCc2sc(NC(=O)C3CC3)c(C(=O)NCC3CC3)c2C1 (stereo not drawn) [Example 144, 5-[[N′-Cyano-N-ethyl-carbamimidoyl]amino]-2-(cyclopropanecarbonylamino)-N-(cyclopropylmethyl)-4,5,6,7-tetrahydrobenzothiophene-3-carboxamide]",> 6.00
8,"CCNc1nnc(C(F)(F)F)n1C1CCc2sc(NC(=O)C3CC3)c(C(=O)NCC3CC3)c2C1 (stereo not drawn) [Example 202, 2-(Cyclopropanecarbonylamino)-N-(cyclopropylmethyl)-5-[3-(ethylamino)-5-(trifluoromethyl)-1,2,4-triazol-4-yl]-4,5,6,7-tetrahydrobenzothiophene-3-carboxamide]",5.00 to 6.00
9,"CC(=O)N1CCc2sc(NC(=O)C3CC3)c(C(=O)NCC3CC3)c2C1 [Example 5, 5-Acetyl-2-(cyclopropanecarbonylamino)-N-(cyclopropylmethyl)-6,7-dihydro-4H-thieno[3,2-c]pyridine-3-carboxamide]",4.30 to 5.00
10,"COC(=O)c1cc(Nc2nncn2[C@H]2CCc3sc(NC(=O)C4CC4)c(C(=O)NCC4CC4)c3C2)n(C)n1 [Example 231, Methyl 5-[[4-[(5S)-2-(cyclopropanecarbonylamino)-3-(cyclopropylmethylcarbamoyl)-4,5,6,7-tetrahydrobenzothiophen-5-yl]-1,2,4-triazol-3-yl]amino]-1-methyl-pyrazole-3-carboxylate]",> 6.00
11,"O=C1CC(c2cccc(NC(=O)C3CCc4sc(NC(=O)C5CC5)c(C(=O)NCC5CC5)c4C3)c2)CN1 (stereo not drawn) [Example 42, 2-(Cyclopropanecarbonylamino)-N3-(cyclopropylmethyl)-N5-[3-(5-oxopyrrolidin-3-yl)phenyl]-4,5,6,7-tetrahydrobenzothiophene-3,5-dicarboxamide]",> 6.00
12,"O=C(NCC1CC1)c1c(NC(=O)C2CC2)sc2c1CC(C(=O)O)CC2 (stereo not drawn) [Example 40, 2-(Cyclopropanecarbonylamino)-3-(cyclopropylmethylcarbamoyl)-4,5,6,7-tetrahydrobenzothiophene-5-carboxylic acid]",4.30 to 5.00
